Laboratory results reported in US11246961B2, “Engineered scaffolds for vascularized tissue repair” (The Regents of the University of California, priority 2016, dated 2022).
Entries after “also recorded” stand apart in the source; their conditions may differ.

How the values were obtained:
[1] = system: HCAECs; test: attachment assay on ligand treated culture surfaces, HCAECs; assay type: cell-based, human; conditions: 10 minutes
Text: Ligands LXW7, LXY30, and LLP2A were synthesized as in U.S. Pat. No. 9,073,974. Biotinylated LXW7 (LXW7-bio) and biotinylated GRGD (GRGD-bio) (SEQ ID NO: 1) were synthesized using established solid phase peptide synthesis protocols (Xiao et al. (2010) Mol Cancer Therapeutics 9:2714). Peptide-bio was designed to have biotin attached to the side chain of Lys, with two hydrophilic linkers between peptide and Lys (biotin). To modify culture surface with ligands, target culture wells in a 24-well plate were coated with 500 μL of 20 μg/mL Avidin (Thermo Fisher Scientific), and incubated for 1 hour at 37° C. Avidin coated wells were rinsed three times with DPBS and were treated with 500 μL molar equivalents (2 μM) of D-biotin (Thermo Fisher Scientific), LXW7-bio, or GRGD-bio (SEQ ID NO: 1). After 1 hour, the wells were washed three times with DPBS and blocked with 1% bovine serum albumin (BSA; Thermo Fisher Scientific) for 1 hour. After the wells were rinsed three times with DPBS, for cell attachment assay, 5×10^4 HCAECs and THP-1 monocytes suspended in the respective maintenance medium were added to the wells and incubated for 10 minutes or 16 hours at 37° C., 5% CO2, respectively. After each time point the wells were washed three times with DPBS, and the adhered cells were fixed in 10% formalin (Azer Scientific) for 20 minutes. For platelets attachment assay, the PRP was centrifuged, and the platelet pellet was resuspended in 1% BSA with 2 mM CaCl2 and 1 mM MgCl2 to achieve a final concentration of 1×10^8 platelets/mL, added to the wells at a density of 5×10^7 platelets/cm^2, and incubated for 16 hours at 37° C., 5% CO2. The wells were washed three times with DPBS, and the adhered cells were fixed in 10% formalin for 20 min. The HCAECs wells were washed with DPBS again and blocked for 1 hour with 1% BSA. An additional wash was performed, and the plate was incubated overnight with mouse anti-PECAM-1 antibody (1:100; Abcam) in 1% BSA at 4° C. […] Five images were randomly taken from each sample and quantification of images was performed using the Image J software (NIH).

[2] = system: THP-1 monocytes; test: attachment assay on ligand treated culture surfaces, THP-1 monocytes; assay type: cell-based; conditions: 16 hours
Text: (§1) Ligands LXW7, LXY30, and LLP2A were synthesized as in U.S. Pat. No. 9,073,974. Biotinylated LXW7 (LXW7-bio) and biotinylated GRGD (GRGD-bio) (SEQ ID NO: 1) were synthesized using established solid phase peptide synthesis protocols (Xiao et al. (2010) Mol Cancer Therapeutics 9:2714). Peptide-bio was designed to have biotin attached to the side chain of Lys, with two hydrophilic linkers between peptide and Lys (biotin). To modify culture surface with ligands, target culture wells in a 24-well plate were coated with 500 μL of 20 μg/mL Avidin (Thermo Fisher Scientific), and incubated for 1 hour at 37° C. Avidin coated wells were rinsed three times with DPBS and were treated with 500 μL molar equivalents (2 μM) of D-biotin (Thermo Fisher Scientific), LXW7-bio, or GRGD-bio (SEQ ID NO: 1). After 1 hour, the wells were washed three times with DPBS and blocked with 1% bovine serum albumin (BSA; Thermo Fisher Scientific) for 1 hour. After the wells were rinsed three times with DPBS, for cell attachment assay, 5×10^4 HCAECs and THP-1 monocytes suspended in the respective maintenance medium were added to the wells and incubated for 10 minutes or 16 hours at 37° C., 5% CO2, respectively. […] Five images were randomly taken from each sample and quantification of images was performed using the Image J software (NIH).

[3] = system: ERK1/2; test: Western-blot analysis, phosphorylation of ERK1/2; assay type: cell-based, human; conditions: LXW7 treated surface, 96 hours, vs D-biotin
Experimental: The 100-mm dishes from Example 2 were treated with Avidin followed by LXW7-bio or D-biotin as described in Example 5. 8×10^5 HCAECs were seeded per dish and cultured in EGM-2 media for 4 days. Cells were lysed using Extraction Kit (Thermo Fisher Scientific) and protein concentrations were determined using BCA Protein Assay (Thermo Fisher Scientific). Fifteen μg of each sample were loaded and separated using a 4-12% Bis-Tris NuPAGE gel (Thermo Fisher Scientific) and transferred to a nitrocellulose membrane. The membrane was blocked in 5% BSA in TBST (Tris-buffered saline with 0.5% Tween-20), and subsequently incubated with primary antibodies anti-VEGF Receptor 2, anti-Phospho-VEGF Receptor 2, anti-p44/42 MAPK (Erk1/2) and anti-Phospho-p44/42 MAPK (Erk1/2) (Thr202/Tyr204), all purchased from Cell Signaling Technologies, in 1% BSA overnight at 4° C. After washing three times with TBST, the membranes were incubated with respective horseradish peroxidase-conjugated secondary antibodies in 1% non-fat dry milk in TBST (BioRad) for 1 hour at room temperature. After washing, the protein bands were visualized using West Dura Substrate (Thermo Fisher Scientific) and quantified using Image J software.

[4] = system: HMVECs; test: on-bead whole cell binding assay, HMVECs; assay type: cell-based, human; conditions: 10 minutes, 30 minutes or 2 hours
Text: Human coronary artery endothelial cells (HCAECs) were purchased from ATCC. Human cardiac microvascular endothelial cells (HMVECs) were purchased from Lonza. THP-1 monocytes were obtained from Dr. Pamela Lein (University of California, Davis). The myeloid leukemia K562 cells that have been transfected with human integrin αvβ3 gene (αvβ3-K562 cells) were provided by Dr. Yoshikazu Takada and the K562 cells transfected with human integrin αIIbβ3 gene (αIIb3-K562 cells) were provided Dr. Jennifer Cochran (Stanford University)
HECFCs, HCAECs, HMVECs and THP-1 monocytes were cultured in their respective growth medium as described in Example 1. For cell bead-binding assay, 6×10^5 HECFCs, HCAECs, HMVECs or THP-1 monocytes in 2 mL of their respective culture medium were added to an ultra-low attachment 35-mm petri dish (Corning Incorporated) followed by resin beads (Lam et al. (1991) Nature 354:82). The dishes were incubated in a shaking incubator at 37° C., 5% CO2 for various time points at 40 rpm. For platelet bead-binding assay, the platelets isolated as described in Example 1 were added to an ultra-low attachment 35-mm petri dish and incubated with the resin beads in the shaking incubator as described for the cell-bead binding assy. Phase contrast images were taken at different time points using an Olympus IX81 microscope. […]

[5] = system: VEGFR-2; test: mRNA level of VEGFR-2 on EPCs; assay type: cell-based; conditions: EPCs treated with LXW7
Experimental: FIG. 15 presents graphs of mRNA levels of VEGFR-2 (A) and EGFR (B) on EPCs after treating with different concentrations of LXW7 for 48 h. *P<0.05 vs. Control, #P<0.05 vs. 25 nM (n=10 per group).

[6] = system: platelets; test: platelets attachment assay on ligand treated culture surfaces; assay type: cell-based; conditions: 16 hours
Text: as §1

## cGRGDdvc [LXW7]
[1]; avidin + biotinylated ligand 2 μM
  attachment of HCAECs on ligand treated surface: bound to both LXW7 and GRGD
[1]; quantified
  number of attached HCAECs, LXW7 vs GRGD surface: attracted more HCAECs than the GRGD-modified
[2]
  THP-1 monocyte attachment on ligand treated surface: did not support THP-1 monocyte attachment
[3]
  phosphorylation of ERK1/2 in ECs: significantly increased
[4]
  attachment of HMVECs to beads displaying LXW7: efficiently supported attachment of EPCs/ECs from different sources; also recorded: efficiently supported EPC/EC attachment
[5]
  VEGFR2 mRNA level: increases in VEGFR2 and EGFR mRNA levels were found to be dependent on treatment time
[6]
  platelet adhesion on ligand treated surface: limited platelet adhesion
